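Test compounds were applied to cells in 96-well plates for 48 hours at 5 doses. GI50 = concentration required for 50% inhibition of growth.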 The source made the active and inactive calls. Rule as the data show it: active = GI50 up to about 1.1 µM and inactive = higher.
Experiments:
Test in all cases: DTP human tumour cell line panel, 48 h
NCI-H23 = tested on: NCI-H23
SNB-19 = tested on: SNB-19
KM-20L2 = tested on: KM-20L2
UO-31 = tested on: UO-31
UACC-62 = tested on: UACC-62
HCT-116 = tested on: HCT-116
Malme-3M = tested on: Malme-3M
NCI-H522 = tested on: NCI-H522
NCI-H460 = tested on: NCI-H460
OVCAR-3 = tested on: OVCAR-3
KM12 = tested on: KM12
SF-268 = tested on: SF-268
UACC-257 = tested on: UACC-257
CCRF-CEM = tested on: CCRF-CEM
HOP-62 = tested on: HOP-62
SNB-75 = tested on: SNB-75
ACHN = tested on: ACHN
A549 = tested on: A549
SK-MEL-28 = tested on: SK-MEL-28
COLO 205 = tested on: COLO 205
OVCAR-8 = tested on: OVCAR-8
OVCAR-5 = tested on: OVCAR-5
TK-10 = tested on: TK-10
M19-MEL = tested on: M19-MEL
HL-60 = tested on: HL-60
CAKI-1 = tested on: CAKI-1
HCT-15 = tested on: HCT-15
SK-OV-3 = tested on: SK-OV-3
SK-MEL-5 = tested on: SK-MEL-5
M14 = tested on: M14
SN12C = tested on: SN12C
NCI-H226 = tested on: NCI-H226
SNB-78 = tested on: SNB-78
RPMI-8226 = tested on: RPMI-8226
K562 = tested on: K562
DMS-114 = tested on: DMS-114
SW-620 = tested on: SW-620
HOP-92 = tested on: HOP-92
SF-295 = tested on: SF-295
MOLT-4 = tested on: MOLT-4
HT-29 = tested on: HT-29
U-251 = tested on: U-251
EKVX = tested on: EKVX
HOP-18 = tested on: HOP-18
SF-539 = tested on: SF-539
OVCAR-4 = tested on: OVCAR-4
IGROV-1 = tested on: IGROV-1
LXFL 529 = tested on: LXFL 529
786-0 = tested on: 786-0
DLD-1 = tested on: DLD-1
HCC 2998 = tested on: HCC 2998
A498 = tested on: A498
DMS-273 = tested on: DMS-273
LOX IMVI = tested on: LOX IMVI
SK-MEL-2 = tested on: SK-MEL-2
DU-145 = tested on: DU-145
RXF 393 = tested on: RXF 393
SR = tested on: SR

Cc1ccc(C(=O)/C=C/c2ccccc2Cl)cc1
GI50 (NCI-H23): 19 µM (inactive) | GI50 (SNB-19): 18.4 µM (inactive) | GI50 (KM-20L2): 16.7 µM (inactive) | GI50 (UO-31): 18.6 µM (inactive) | GI50 (UACC-62): 14.3 µM (inactive) | GI50 (HCT-116): 11.8 µM (inactive) | GI50 (Malme-3M): 23.5 µM (inactive) | GI50 (NCI-H522): 14 µM (inactive) | GI50 (NCI-H460): 14.9 µM (inactive) | GI50 (OVCAR-3): 17.3 µM (inactive) | GI50 (KM12): 15.7 µM (inactive) | GI50 (SF-268): 20.5 µM (inactive) | GI50 (UACC-257): 15.4 µM (inactive) | GI50 (CCRF-CEM): 18.8 µM (inactive) | GI50 (HOP-62): 68.5 µM (inactive) | GI50 (SNB-75): 19.1 µM (inactive) | GI50 (ACHN): 15.9 µM (inactive) | GI50 (A549): 33.7 µM (inactive) | GI50 (SK-MEL-28): 14.2 µM (inactive) | GI50 (COLO 205): 24.2 µM (inactive) | GI50 (OVCAR-8): 15.8 µM (inactive) | GI50 (OVCAR-5): 17.1 µM (inactive) | GI50 (TK-10): 21.1 µM (inactive) | GI50 (M19-MEL): 18.8 µM (inactive) | GI50 (HL-60): 16.4 µM (inactive) | GI50 (CAKI-1): 16.8 µM (inactive) | GI50 (HCT-15): 15 µM | GI50 (SK-OV-3): 39.4 µM (inactive) | GI50 (SK-MEL-5): 20.9 µM (inactive) | GI50 (M14): 17.6 µM (inactive) | GI50 (SN12C): 20.6 µM (inactive) | GI50 (NCI-H226): 25.1 µM (inactive) | GI50 (SNB-78): 21.7 µM (inactive) | GI50 (RPMI-8226): 15.8 µM (inactive) | GI50 (K562): 19.7 µM (inactive) | GI50 (DMS-114): 18.3 µM (inactive) | GI50 (SW-620): 13.6 µM (inactive) | GI50 (HOP-92): 30.1 µM (inactive) | GI50 (SF-295): 19.2 µM (inactive) | GI50 (MOLT-4): 19.6 µM (inactive) | GI50 (HT-29): 15.8 µM (inactive) | GI50 (U-251): 14.7 µM (inactive) | GI50 (EKVX): 19.2 µM (inactive) | GI50 (HOP-18): 26.8 µM (inactive) | GI50 (SF-539): 21.2 µM (inactive) | GI50 (OVCAR-4): 17.1 µM (inactive) | GI50 (IGROV-1): 18.4 µM (inactive) | GI50 (LXFL 529): 15.3 µM (inactive) | GI50 (786-0): 16.2 µM (inactive) | GI50 (DLD-1): 19.8 µM (inactive) | GI50 (HCC 2998): 18.5 µM (inactive) | GI50 (A498): 25.4 µM (inactive) | GI50 (DMS-273): 15.2 µM (inactive)

CN(N=O)C(=O)ON1C(=O)CCC1=O
GI50 (NCI-H23): > 100 µM (inactive) | GI50 (SNB-19): > 100 µM (inactive) | GI50 (KM-20L2): > 100 µM (inactive) | GI50 (UO-31): > 100 µM (inactive) | GI50 (UACC-62): > 100 µM (inactive) | GI50 (HCT-116): > 100 µM (inactive) | GI50 (Malme-3M): > 100 µM (inactive) | GI50 (NCI-H522): > 100 µM (inactive) | GI50 (LOX IMVI): > 100 µM (inactive) | GI50 (NCI-H460): 47.8 µM (inactive) | GI50 (OVCAR-3): > 100 µM (inactive) | GI50 (KM12): > 100 µM (inactive) | GI50 (SF-268): > 100 µM (inactive) | GI50 (UACC-257): > 100 µM (inactive) | GI50 (CCRF-CEM): > 100 µM (inactive) | GI50 (HOP-62): > 100 µM (inactive) | GI50 (SNB-75): 54.1 µM (inactive) | GI50 (ACHN): > 100 µM (inactive) | GI50 (A549): > 100 µM (inactive) | GI50 (SK-MEL-28): > 100 µM (inactive) | GI50 (OVCAR-8): > 100 µM (inactive) | GI50 (OVCAR-5): > 100 µM (inactive) | GI50 (TK-10): > 100 µM (inactive) | GI50 (M19-MEL): > 100 µM (inactive) | GI50 (HL-60): > 100 µM (inactive) | GI50 (CAKI-1): > 100 µM (inactive) | GI50 (HCT-15): > 100 µM | GI50 (SK-OV-3): > 100 µM (inactive) | GI50 (SK-MEL-5): > 100 µM (inactive) | GI50 (M14): > 100 µM (inactive) | GI50 (NCI-H226): > 100 µM (inactive) | GI50 (SNB-78): > 100 µM (inactive) | GI50 (RPMI-8226): > 100 µM (inactive) | GI50 (K562): > 100 µM (inactive) | GI50 (DMS-114): > 100 µM (inactive) | GI50 (SW-620): > 100 µM (inactive) | GI50 (HOP-92): > 100 µM (inactive) | GI50 (SF-295): > 10 µM (inactive) | GI50 (MOLT-4): > 100 µM (inactive) | GI50 (SK-MEL-2): > 100 µM (inactive) | GI50 (HT-29): > 100 µM (inactive) | GI50 (EKVX): > 100 µM (inactive) | GI50 (HOP-18): > 100 µM (inactive) | GI50 (SF-539): > 100 µM (inactive) | GI50 (OVCAR-4): > 100 µM (inactive) | GI50 (IGROV-1): > 100 µM (inactive) | GI50 (LXFL 529): > 100 µM (inactive) | GI50 (786-0): > 100 µM (inactive) | GI50 (DLD-1): > 100 µM (inactive) | GI50 (HCC 2998): > 100 µM (inactive) | GI50 (A498): > 100 µM (inactive) | GI50 (DMS-273): > 100 µM (inactive)

C=C=C(Sc1ccccc1)C(C)(C)OC(C)=O
GI50 (NCI-H23): 17.2 µM (inactive) | GI50 (DU-145): 27.2 µM (inactive) | GI50 (SNB-19): 18.8 µM (inactive) | GI50 (KM-20L2): 26.3 µM (inactive) | GI50 (UO-31): 14.2 µM (inactive) | GI50 (UACC-62): 14.3 µM (inactive) | GI50 (HCT-116): 13.9 µM (inactive) | GI50 (RXF 393): 14.7 µM (inactive) | GI50 (Malme-3M): 18.3 µM (inactive) | GI50 (NCI-H522): 15.6 µM (inactive) | GI50 (LOX IMVI): 16.5 µM (inactive) | GI50 (NCI-H460): 21.1 µM (inactive) | GI50 (OVCAR-3): 16.3 µM (inactive) | GI50 (KM12): 16 µM (inactive) | GI50 (SF-268): 13.9 µM (inactive) | GI50 (UACC-257): 17.2 µM (inactive) | GI50 (CCRF-CEM): 20.2 µM (inactive) | GI50 (SNB-75): 21.2 µM (inactive) | GI50 (ACHN): > 10 µM (inactive) | GI50 (A549): 23.9 µM (inactive) | GI50 (SK-MEL-28): 17.1 µM (inactive) | GI50 (COLO 205): 18.4 µM (inactive) | GI50 (OVCAR-8): 20.2 µM (inactive) | GI50 (OVCAR-5): 20.3 µM (inactive) | GI50 (SR): 27.9 µM (inactive) | GI50 (TK-10): 32.5 µM (inactive) | GI50 (M19-MEL): 15.8 µM (inactive) | GI50 (HL-60): 26.7 µM (inactive) | GI50 (CAKI-1): 34.9 µM (inactive) | GI50 (HCT-15): 20.6 µM | GI50 (SK-OV-3): 25.1 µM (inactive) | GI50 (SK-MEL-5): 15.8 µM (inactive) | GI50 (M14): 17.4 µM (inactive) | GI50 (SN12C): 16.2 µM (inactive) | GI50 (NCI-H226): 21.4 µM (inactive) | GI50 (SNB-78): 29.8 µM (inactive) | GI50 (RPMI-8226): 30.7 µM (inactive) | GI50 (K562): 22.1 µM (inactive) | GI50 (SW-620): 17.6 µM (inactive) | GI50 (HOP-92): 15.8 µM (inactive) | GI50 (SF-295): 18.2 µM (inactive) | GI50 (MOLT-4): 34.5 µM (inactive) | GI50 (SK-MEL-2): 17.9 µM (inactive) | GI50 (HT-29): 18.7 µM (inactive) | GI50 (U-251): 16.9 µM (inactive) | GI50 (HOP-18): 20 µM (inactive) | GI50 (SF-539): 16.1 µM (inactive) | GI50 (OVCAR-4): 31.2 µM (inactive) | GI50 (IGROV-1): 17.6 µM (inactive) | GI50 (LXFL 529): 18.2 µM (inactive) | GI50 (786-0): 16.5 µM (inactive) | GI50 (DLD-1): 16.5 µM (inactive) | GI50 (HCC 2998): 20.9 µM (inactive) | GI50 (A498): 19 µM (inactive)
